Experimental data from US4469701A, “Pyrrolid-3-en-2-ones and pharmaceutical methods of use thereof” (Stauffer Chemical Company, priority 1983, dated 1984).

Experiments:
[1] = Anticholinergic properties (overall statement); settings: in vivo
rats [2] = test: Antiulcer: stress induced gastric ulcers in rats; assay type: in vivo, rat
Method: Fasted rats were dosed, p.o., 30 minutes before immobilization in wire mesh and partial immersion in water for 4 hours. Inhibition of the resulting stress induced gastric ulcers by more than 60% (>60) indicates activity.
^6 U = Antiulcerative. Percent inhibition of stress ulcers 4 hr.
following a 50 mg/kg oral dose in rats.

Estrogenic effects = settings: in vivo
[3] = test system: hypercholesterolemic mice; test: HP-betalipoprotein: serum heparin precipitating lipoprotein (HPL); assay type: in vivo, mouse; settings: 200 and 400 mg/kg, p.o.
From the text: Reduction of serum heparin precipitating lipoprotein (HPL) concentrations (corresponding to low density lipoprotein and very low density lipoprotein fractions) in the same hypercholesterolemic mice from Test 6 above by more than 20% (>20) from control animals indicates activity.

rats [4] = test: Bradycardia: heart rate by EKG in rats; assay type: in vivo, rat
Method: […] Decrease in heart rate by more than 10% (>10) is considered a bradycardic effect.
Percent decrease in heart rate 45 min. after a 5
mg/kg oral dose in rats.

[5] = test system: hypercholesterolemic mice; test: Hypocholesterolemic: serum cholesterol in hypercholesterolemic mice; assay type: in vivo, mouse
Method: Mice made hypercholesterolemic by being fed a high cholesterol-cholic acid diet for 7 days were dosed on the sixth and seventh days, p.o. After fasting overnight, reduction in serum cholesterol concentration by more than 15% (>15) from hypercholesterolemic control mice indicates activity.
^4 C = Hypocholesterolemic. Percent decrease in serum cholesterol in
hypercholesterolemic mice given 2 oral doses of 200 mg/kg drug candidate

mice = test: Antiarrhythmic: chloroform-induced cardiac arrhythmia in mice; assay type: in vivo, mouse; settings: 15 min. after a 200 mg/kg intraperitoneal dose; significance <2
Method: ^2 A = Antiarrythmic. Less than 2/3 mouse hearts fibrillating 15 min.

[6] = test system: spontaneously hypertensive rats (SHR); test: Antihypertensive: blood pressure (tail cuff) in spontaneously hypertensive rats (SHR); assay type: in vivo, rat; settings: Rattus norvegicus; 6 hr. after a 100 mg/kg oral dose; significance >10; read-out: Antihypertensive: percent decrease in systolic blood pressure in spontaneously hypertensive rats
Method: Blood pressure was measured indirectly (tail cuff) in unanesthetized, unheated spontaneously hypertensive rats (SHR) before and 2, 4, and 6 hours after p.o. dosing. Reduction in mean pressure by more than 10% (>10) at any two consecutive measurement times after dosing indicates antihypertensive activity.

Structure (SMILES): CC1(C)CCCC(C)(C)N1CC1=CC(=O)N(c2cc(C(F)(F)F)ccc2Cl)C1 [Compound 10]
- Anticholinergic properties/effects [1]: absence of evidence of anticholinergic effects
- Protection from stress-induced gastric ulcers, in words (rats [2]; 50 mg/kg, p.o., rats): partially protected
- inhibition in vivo at 50 mg/kg (rats [2]; Rattus norvegicus, 4 hr. following a 50 mg/kg oral dose in rats, significance >60, read-out: U = Antiulcerative: percent inhibition of stress ulcers): 75%
- Estrogenic effects (Estrogenic effects): No estrogenic effects
- HPL/cholesterol ratio [3]: large reductions
- Heparin precipitating lipoproteins (HPL), in words [3]: Marked reductions
- inhibition in vivo at 5 mg/kg (rats [4]; Rattus norvegicus, 0.75 h, 45 min. after a 5 mg/kg oral dose in rats, significance >10, read-out: B = Bradycardiac: percent decrease in heart rate): 1%
- Bradycardic effects, in words (rats [4]; rat, in vivo): No
- Serum cholesterol, in words ([5]; 200 and 400 mg/kg, p.o.): Marked reductions
- inhibition in vivo at 200 mg/kg ([5]; Mus musculus, hypercholesterolemic mice, 2 oral doses of 200 mg/kg 20 hr. apart, significance >20, read-out: C = Hypocholesterolemic: percent decrease in serum cholesterol): 46%
- A = Antiarrythmic: mouse hearts fibrillating (of 3) (mice): 3
- inhibition in vivo at 100 mg/kg [6]: 15%
